Source: patent US9120744B2, “Plasminogen activator inhibitor-1 inhibitors and methods of use thereof to modulate lipid metabolism” (THE REGENTS OF THE UNIVERSITY OF MICHIGAN, priority 2007, dated 2015)

Assays:
[1] = biological target: T1, recombinant active human PAI-1 (Homo sapiens (Human), UniProt P05121); assay: Fluorometric IC50 plate assay (PAI-1 inhibition of uPA, Z-Gly-Gly-Arg-AMC); type: biochemical; settings: in vitro, PAI-1 1 nM, uPA 2.5 nM, pH 7.8, 10% DMSO; ND = not detected, e.g. no inhibition
T1 sequence (P05121 24-402): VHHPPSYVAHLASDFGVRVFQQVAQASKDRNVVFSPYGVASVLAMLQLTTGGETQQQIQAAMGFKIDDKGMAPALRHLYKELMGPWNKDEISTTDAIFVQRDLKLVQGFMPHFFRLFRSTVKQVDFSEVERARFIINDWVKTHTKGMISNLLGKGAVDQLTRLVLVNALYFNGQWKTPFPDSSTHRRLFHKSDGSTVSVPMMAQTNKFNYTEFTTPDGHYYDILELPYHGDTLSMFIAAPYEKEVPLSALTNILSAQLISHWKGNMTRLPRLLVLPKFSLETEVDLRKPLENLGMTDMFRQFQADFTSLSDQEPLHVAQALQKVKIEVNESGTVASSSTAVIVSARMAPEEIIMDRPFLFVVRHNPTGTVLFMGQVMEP

[2] = biological target: T2, PAI-1 (Homo sapiens (Human), UniProt P05121); assay: Surface plasmon resonance, loss of PAI-1 binding to immobilized anhydrotrypsin; settings: PAI-1 2 nM preincubated with compound, SPR; read-out: Apparent KD (nM) ± SEM
Target sequence in this assay (P05121 24-402): as above

[3] = biological target: T1, recombinant active human PAI-1; assay: pH dependence of PAI-1 inhibition, fluorogenic uPA (or tPA) assay; type: biochemical; settings: for effect of pH on PAI-1 inhibition (in words): pH 6.5 to 8.5
[4] = biological target: PAI-1/vitronectin (Homo sapiens (Human), UniProt P05121); assay: Inhibition of PAI-1 in the presence of vitronectin, fluorogenic uPA assay; type: biochemical
Chain of PAI-1/vitronectin (P05121 24-402): as above

[5] = biological target: anti-thrombin III (ATIII) (Homo sapiens (Human), UniProt P01008); assay: Specificity assay on anti-thrombin III (thrombin activity); type: biochemical; settings: pH 7.5 or pH 8.5, with heparin
Chain of anti-thrombin III (ATIII) (P01008 33-464, species assumed): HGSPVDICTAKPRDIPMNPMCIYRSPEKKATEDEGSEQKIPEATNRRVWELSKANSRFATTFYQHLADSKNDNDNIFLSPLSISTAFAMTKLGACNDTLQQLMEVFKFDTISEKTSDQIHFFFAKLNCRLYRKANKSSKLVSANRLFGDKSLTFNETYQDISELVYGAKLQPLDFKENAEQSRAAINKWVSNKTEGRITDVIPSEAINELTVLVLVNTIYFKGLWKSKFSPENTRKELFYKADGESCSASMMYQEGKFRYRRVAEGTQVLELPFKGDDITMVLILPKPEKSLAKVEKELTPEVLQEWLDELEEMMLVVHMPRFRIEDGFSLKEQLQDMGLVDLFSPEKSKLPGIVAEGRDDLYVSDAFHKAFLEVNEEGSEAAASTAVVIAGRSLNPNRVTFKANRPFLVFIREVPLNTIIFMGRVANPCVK

[6] = system: PAI-1; assay: PAI-1 activity assay in ex vivo plasma with and without vitronectin; type: biochemical; settings: plasma of PAI-1 null or PAI-1/vitronectin null mice, 20 nM PAI-1
[7] = biological target: active murine PAI-1 (Mus musculus (Mouse), UniProt P22777); assay: In vivo efficacy in transgenic mice that overexpress PAI-1, active PAI-1 in plasma; settings: 3, 10, 30 mg/kg into the IVC, 1 hour
Chain of active murine PAI-1 (P22777 23-402): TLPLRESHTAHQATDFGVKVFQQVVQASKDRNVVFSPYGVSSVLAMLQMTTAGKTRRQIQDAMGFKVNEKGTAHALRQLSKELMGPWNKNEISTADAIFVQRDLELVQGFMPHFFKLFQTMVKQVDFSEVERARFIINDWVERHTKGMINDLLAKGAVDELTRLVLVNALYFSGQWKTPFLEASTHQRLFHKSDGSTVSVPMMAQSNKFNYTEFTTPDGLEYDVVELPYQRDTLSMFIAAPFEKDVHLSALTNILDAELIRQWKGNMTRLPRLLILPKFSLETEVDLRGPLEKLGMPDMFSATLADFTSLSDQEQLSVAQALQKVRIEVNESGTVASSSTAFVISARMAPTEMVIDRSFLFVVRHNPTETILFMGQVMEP

[8] = system: C57BL/6J and 129 mice; assay: Oral PAI-039 in chow for two weeks, plasma PAI-1 activity and lipid profiles; type: in vivo, mouse
[9] = system: PAI-1 null mice; assay: Oral PAI-039 in PAI-1 null mice, lipid analysis; type: in vivo, mouse; settings: two weeks in chow
[10] = biological target: T2, PAI-1; settings: cited from earlier work
Target sequence in this assay (P05121 24-402, species assumed): as the sequence (P05121 24-402) above

[11] = biological target: active mouse PAI-1 (Mus musculus (Mouse), UniProt P22777); assay: Ex vivo plasma Luminex assay, mouse plasma spiked with active mouse PAI-1; type: biochemical; settings: mouse plasma spiked with active mouse PAI-1 3-4 ng/mL
Chain of active mouse PAI-1 (P22777 23-402): as the sequence (P22777 23-402) above

[12] = biological target: T1, recombinant active human PAI-1; assay: Chromogenic uPA assay of PAI-1 inhibition (pGlu-Gly-Arg pNA); type: biochemical; settings: some experiments (not shown in FIG. 2)
[13] = biological target: T2, PAI-1; assay: SDS-PAGE analysis of PAI-1:plasminogen activator complex formation; type: biochemical; settings: tannic acid 0-100 μM, uPA or tPA
Target sequence in this assay (P05121 24-402): as the sequence (P05121 24-402) above

[14] = biological target: recombinant active human PAI-1 preincubated with vitronectin (Homo sapiens (Human), UniProt P05121); assay: Inhibition of vitronectin-bound PAI-1 by tannic acid, chromogenic uPA assay; type: biochemical; settings: 5-fold molar excess of vitronectin
Chain of recombinant active human PAI-1 preincubated with vitronectin (P05121 24-402): as above
Chain of recombinant active human PAI-1 preincubated with vitronectin (P04004 20-478 partner): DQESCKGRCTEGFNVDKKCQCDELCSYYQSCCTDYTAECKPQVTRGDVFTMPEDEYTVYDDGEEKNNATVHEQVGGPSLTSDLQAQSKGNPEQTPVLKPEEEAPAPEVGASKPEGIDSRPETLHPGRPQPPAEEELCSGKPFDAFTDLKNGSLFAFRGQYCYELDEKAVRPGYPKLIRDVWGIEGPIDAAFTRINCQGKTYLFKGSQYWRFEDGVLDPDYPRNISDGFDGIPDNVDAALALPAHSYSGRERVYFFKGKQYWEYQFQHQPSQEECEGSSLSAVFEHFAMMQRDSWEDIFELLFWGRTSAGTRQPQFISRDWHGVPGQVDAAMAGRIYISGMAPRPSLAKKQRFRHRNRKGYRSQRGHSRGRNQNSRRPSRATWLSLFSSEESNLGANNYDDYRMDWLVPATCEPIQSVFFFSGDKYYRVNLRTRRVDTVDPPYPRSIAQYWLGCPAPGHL

[15] = biological target: T1, recombinant active human PAI-1; assay: β-trypsin screening assay for PAI-1 inhibitors; type: biochemical; settings: 10 μM compound; hit = more than 3 standard deviations above control;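 note: fluorogenic readout with PAI-1 and β-trypsin at 10:1 molar ratio, untreated PAI-1 wells set as 100% PAI-1 activity and β-trypsin alone as 0%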
[16] = biological target: T1, recombinant active human PAI-1; assay: High throughput uPA chromogenic screen for PAI-1 inactivators; type: biochemical; settings: 10 μM compound; hit = more than 3 standard deviations above control

O=C(OCCOC(=O)c1cc(O)c(O)c(O)c1)c1cc(O)c(O)c(O)c1 [CDE-008]
IC50 [1]: 370 nM | Kd [2]: 23 ± 1 nM | IC50 ([3]; pH 6.5): 325000 nM | effect of pH on PAI-1 inhibition (in words) [3]: more effective inhibitor at pH 8.5 than at pH 7.5 | IC50 ([3]; pH 7.5): 288 nM | IC50 ([3]; pH 8.5): 64 nM | inhibition of PAI-1 in the presence of vitronectin (in words) ([4]; 200 nM vitronectin, pH 7.5 and pH 8.5): inhibits PAI-1 in the presence of vitronectin at both pH 7.5 and pH 8.5 | change of IC50 in the presence of vitronectin ([4]; at each pH (7.5 and 8.5)): 1 log value | effect on ATIII activity (in words) [5]: no effect

O=C(OC[C@H]1OC(OC(=O)c2cc(O)c(O)c(O)c2)[C@H](OC(=O)c2cc(O)c(O)c(O)c2)[C@@H](OC(=O)c2cc(O)c(O)c(O)c2)[C@H]1OC(=O)c1cc(O)c(O)c(O)c1)c1cc(O)c(O)c(O)c1 (stereo partly shown) [CDE-066]
PAI-1 inhibition in plasma with or without vitronectin (in words) [6]: inhibited PAI-1 equally well in plasma with or with out physiologic vitronectin | active PAI-1 in plasma after treatment (in words) [7]: dose-dependent decrease in active PAI-1

O=C(O)C(=O)c1cn(Cc2ccccc2)c2ccc(-c3ccc(OC(F)(F)F)cc3)cc12 [PAI-039, tiplaxtinin]
PAI-1 inhibition in plasma with or without vitronectin (in words) [6]: only inhibitory in plasma that lacks vitronectin | HDL cholesterol increase [8]; 129: 45% | VLDL decrease [8]; 129: 35% | HDL cholesterol increase ([8]; C57BL/6J): 11% | VLDL decrease ([8]; C57BL/6J): 49% | plasma level of active PAI-1 ([8]; C57BL/6J mice, 5 mg PAI-039/gram of chow, two weeks): 0.37 ± 0.08 ng/mL | VLDL average decrease ([8]; average of C57BL/6J and 129): 42% | HDL higher, average increase for C57BL/6J and 129 mice ([8]; average of both strains): approximately 28% | effect on metabolism (lipid profile) in PAI-1 null mice (in words) [9]: no significant effect | inhibition of vitronectin bound PAI-1 (in words) [10]: does not inhibit vitronectin bound PAI-1

O=C(OC[C@H]1O[C@@H](OC(=O)c2cc(O)c(O)c(OC(=O)c3cc(O)c(O)c(O)c3)c2)[C@H](OC(=O)c2cc(O)c(O)c(OC(=O)c3cc(O)c(O)c(O)c3)c2)[C@@H](OC(=O)c2cc(O)c(O)c(OC(=O)c3cc(O)c(O)c(O)c3)c2)[C@@H]1OC(=O)c1cc(O)c(O)c(OC(=O)c2cc(O)c(O)c(O)c2)c1)c1cc(O)c(O)c(OC(=O)c2cc(O)c(O)c(O)c2)c1 [Tannic acid, tannic acid]
IC50 [11]: 9680 nM | IC50 ([3]; pH 6.5): 7360 nM | effect of pH on PAI-1 inhibition (in words) [3]: improved by increasing pH | IC50 ([3]; pH 7.5): 7150 nM | IC50 ([3]; pH 8.5): 9.1 nM | IC50 [12]: 2500 nM | effect on PAI-1:PA complex formation (in words) [13]: converts PAI-1 to a substrate for PAs | inhibition of vitronectin-bound PAI-1 (in words) [14]: inhibited PAI-1 activity even when bound to vitronectin | screening hit: restoration of β-trypsin activity [15]: demonstrate PAI-1 inhibitor activity | screening hit: restoration of uPA activity [16]: positive hits
